Measurements as given in patent US20250383357A1, “NOVEL FLUORESCENT DYES AND POLYMERS FROM DIHYDROPHENANTHRENE DERIVATIVES” (Beckman Coulter, Inc., priority 2022, published 2025).

Assay: Fluorescence properties of DHP-cyanine dyes (excitation/absorbance and emission maxima, extinction coefficient)
Type: physicochemical
Settings: for λem (emission wavelength) / λex (maximum excitation wavelength): Table 1
From the text: The term “absorbance maxima” or “Abs λ max” or “max λ abs” refer to wavelength of maximum absorbance measured by UV Vis spectroscopy.

SMILES	λem (emission wavelength) [nm]	λex (maximum excitation wavelength) [nm]	Abs max (purified dye) [nm]	emission max (purified dye) [nm]	extinction coefficient (purified dye) [M⁻¹ cm⁻¹]
CC1(C)C(/C=C/C=C/C=C2\N(CCCS(=O)(=O)O)c3ccc(C(=O)O)cc3C2(C)C)=[N+](CCCS(=O)(=O)O)c2cc3c4c(c21)CCc1cc(S(=O)(=O)[O-])cc(c1-4)S3(=O)=O [Compound 25, (Z)-2-((2E,4E)-5-(2-((l1-oxidaneyl)dioxo-l6-sulfaneyl)-6-(3-((l1-oxidaneyl)dioxo-l6-sulfaneyl)propyl)-8,8-dimethyl-4,4-dioxido-9,10-dihydro-8H-6l4-thieno[2′,3′,4′,5′:4,5]phenanthro[2,1-b]pyrrol-7-yl)penta-2,4-dien-1-ylidene)-1-(3-((l1-oxidaneyl)dioxo-l6-sulfaneyl)propyl)-3,3-dimethylindoline-5-carboxylic Acid]	686	666	666	686	150450
CC1(C)Cc2c3c(cc4c2C(C)(C)C(/C=C/C=C/C=C2\N(CCCCCC(=O)O)c5ccc(S(=O)(=O)O)cc5C2(C)C)=[N+]4CCCS(=O)(=O)O)S(=O)(=O)c2cc(S(=O)(=O)O)cc1c2-3 [Compound 36, 2-((l1-oxidaneyl)dioxo-l6-sulfaneyl)-7-((1E,3E)-5-((Z)-5-((l1-oxidaneyl)dioxo-l6-sulfaneyl)-1-(5-carboxypentyl)-3,3-dimethylindolin-2-ylidene)penta-1,3-dien-1-yl)-6-(3-((l1-oxidaneyl)dioxo-l6-sulfaneyl)propyl)-8,8,10,10-tetramethyl-9,10-dihydro-8H-thieno[2′,3′,4′,5′:4,5]phenanthro[2,1-b]pyrrol-6-ium 4,4-dioxide]	683	663	663	683	
